# Data as given in PubChem BioAssay AID651874 (Southern Research Specialized Biocontainment Screening …, 2012).
# System: VEEV TrD infected cells, viral cytopathic effect inhibition
# Experiment: VEEV TrD cytopathic effect inhibition, confirmation, cell-based, Trinidad donkey strain, set 2 (AID 651874)
row,SMILES,IC50 [nM]
1,CNCCCN(C)Cc1nc2ccc([N+](=O)[O-])cc2c(=O)n1-c1ccccc1,405
2,CN1CCN(C)C(=Nc2ccc([N+](=O)[O-])cc2C(=O)Nc2ccccc2F)C1,158
3,COc1cccc(-n2c(CN3CCNCC3)nc3ccc([N+](=O)[O-])cc3c2=O)c1,5630
4,CN1CCN(C)C(=Nc2ccc(C#N)cc2C(=O)Nc2ccccc2)C1,319
5,CCN1CCN(Cc2nc3ccc([N+](=O)[O-])cc3c(=O)n2-c2ccc(F)cc2)CC1,605
6,COc1ccc(-n2c(CN3CCNCC3)nc3ccc([N+](=O)[O-])cc3c2=O)cc1,96.6
7,CN1CCN(Cc2nc3ccc([N+](=O)[O-])cc3c(=O)n2-c2ccccc2F)CC1,139
8,CCN1CCN(Cc2nc3ccc([N+](=O)[O-])cc3c(=O)n2-c2ccccc2)CC1,241
9,CN1CCN(C)C(=Nc2ccc(C#N)cc2C(=O)Nc2cccc(F)c2)C1,823
10,O=c1c2cc([N+](=O)[O-])ccc2nc(CN2CCNCC2)n1-c1ccccc1F,148
11,CCN1CCN(Cc2nc3ccc(C#N)cc3c(=O)n2-c2ccccc2)CC1,1090
12,CCN1CCN(Cc2nc3ncc([N+](=O)[O-])cc3c(=O)n2-c2ccccc2)CC1,3080
13,O=c1c2cc([N+](=O)[O-])ccc2nc(CN2CCNCC2)n1-c1ccsc1,905
14,CCN1CCN(Cc2nc3ccc([N+](=O)[O-])cc3c(=O)n2-c2cccc(F)c2)CC1,278
15,O=c1c2cc([N+](=O)[O-])ccc2nc(CN2CCNCC2)n1-c1ccccc1,86
16,CN1CCN(C)C(=Nc2cc(Cl)c(C#N)cc2C(=O)Nc2ccccc2)C1,113
17,CCN1CCN(Cc2nc3ccc([N+](=O)[O-])cc3c(=O)n2-c2ccccc2F)CC1,557
18,CN1CCN(C)C(=Nc2ccc([N+](=O)[O-])cc2C(=O)Nc2ccccc2)C1,40.1
19,COc1ccc(NC(=O)c2cc([N+](=O)[O-])ccc2N=C2CN(C)CCN2C)cc1,45
20,CCN1CCN(C)CC1=Nc1ccc([N+](=O)[O-])cc1C(=O)Nc1ccccc1,34
